Patent US20230303540A1 (Merck Sharp & Dohme LLC, priority 2020, published 2023)

Molecular target: GST-tagged truncated human mutant G2019S LRRK2 (Homo sapiens, UniProt Q5S007, G2019S)
Test: LRRK2 G2019S Km ATP LanthaScreen assay
Assay type: biochemical
Conditions: 134 μM ATP (Km ATP), LRRKtide substrate, mean IC50 values; read-out: LRRK2 pIC50 (converted)
Summary of the method: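 LanthaScreen TR-FRET read with fluorescein-LRRKtide and 134 μM ATP (Km) in Tris pH 8.5/10 mM MgCl2 buffer. The enzyme was preincubated 15 min with compound at room temperature, and the reaction ran 90 min at ambient temperature. Stopped with EDTA plus Tb anti-phospho-LRRKtide antibody; the 520/495 nm ratio gave a 4-parameter logistic IC50, mean of several runs.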

Structure (SMILES) | IC50
O=C1C2CCC(C2)N1c1ccc2cnc(Nc3ccn(CC(F)(F)F)n3)nc2c1 (stereo not drawn) [Ex-4.8, 2-(2-{[1-(2,2,2-trifluoroethyl)-1H-pyrazol-3-yl]amino}quinazolin-7-yl)-2-azabicyclo[2.2.1]heptan-3-one] | 8.95 nM
CN1CCN(c2cc3nc(Nc4cnn(C5(C)CC5)c4Cl)ncc3cc2Cl)CC1=O [Ex-4.44, 4-(6-chloro-2-{[5-chloro-1-(1-methylcyclopropyl)-1H-pyrazol-4-yl]amino}quinazolin-7-yl)-1-methylpiperazin-2-one] | 20 nM
CCn1ncc(Nc2ncc3ccc(N4C(=O)C5CCC4C5)cc3n2)c1C (stereo not drawn) [Ex-7.20, 2-{2-[(1-ethyl-5-methyl-1H-pyrazol-4-yl)amino]quinazolin-7-yl}-2-azabicyclo[2.2.1]heptan-3-one] | 11.3 nM
C[C@H]1COC(=O)N1c1ccc2cnc(Nc3cnn(CC(F)(F)F)c3)nc2c1 [Ex-7.21, (4S)-4-methyl-3-(2-{[1-(2,2,2-trifluoroethyl)-1H-pyrazol-4-yl]amino}quinazolin-7-yl)-1,3-oxazolidin-2-one] | 0.625 nM
CC(C)(O)CN1CCN(c2cc3nc(Nc4cnn(C5CC5)c4Cl)ncc3cc2Cl)CC1 [Ex-1.31, 1-(4-{6-chloro-2-[(5-chloro-1-cyclopropyl-1H-pyrazol-4-yl)amino]quinazolin-7-yl}piperazin-1-yl)-2-methylpropan-2-ol] | 10.1 nM
CC(C)(O)Cn1cc(Nc2ncc3cc(Cl)c(N4CCN(C5(C)COC5)CC4)cc3n2)cn1 [Ex-4.59, 1-[4-({6-chloro-7-[4-(3-methyloxetan-3-yl)piperazin-1-yl]quinazolin-2-yl}amino)-1H-pyrazol-1-yl]-2-methylpropan-2-ol] | 5.26 nM
CCn1ncc(Nc2ncc3ccc(N4CCC4C)cc3n2)c1C (single isomer, unassigned) [Ex-1.11, (S) or (R) N-(1-ethyl-5-methyl-1H-pyrazol-4-yl)-7-(2-methylazetidin-1-yl)quinazolin-2-amine] | 33.2 nM
OC1COCC1N1CCN(c2cc3nc(Nc4cnn(C5CC5(F)F)c4Cl)ncc3cc2Cl)CC1 (single isomer, unassigned) [Ex-6.31, (3S,4S) or (3R,4R) 4-[4-(6-chloro-2-{[5-chloro-1-(2,2-(R) or (S)difluorocyclopropyl)-1H-pyrazol-4-yl]amino}quinazolin-7-yl)piperazin-1-yl]oxolan-3-ol] | 17.9 nM
Cc1c(N2CCN(C3(C)COC3)CC2)c(Cl)cc2cnc(Nc3cnn(CC(F)(F)F)c3)nc12 [Ex-4.3, 6-Chloro-8-methyl-7-(4-(3-methyloxetan-3-yl)piperazin-1-yl)-N-(1-(2,2,2-trifluoroethyl)-1H-pyrazol-4-yl)quinazolin-2-amine] | 3.36 nM
CN1CCC2CCN(c3cc4nc(Nc5cnn(C6CC6)c5Cl)ncc4cc3Cl)C2C1 (stereo not drawn) [Ex-1.42, 6-chloro-N-(5-chloro-1-cyclopropyl-1H-pyrazol-4-yl)-7-(6-methyloctahydro-1H-pyrrolo[2,3-c]pyridin-1-yl)quinazolin-2-amine] | 25.6 nM
CC(C)(O)Cn1ncc(Nc2ncc3cc(Cl)c(N4C[C@H]5CC[C@@H](C4)[C@@]5(C)O)cc3n2)c1Cl [Ex-3.30, (8-syn)-3-(6-chloro-2-{[5-chloro-1-(2-hydroxy-2-methylpropyl)-1H-pyrazol-4-yl]amino}quinazolin-7-yl)-8-methyl-3-azabicyclo[3.2.1] octan-8-ol] | 5.09 nM
Cc1cc2cnc(Nc3cnn(C)c3C)nc2cc1N1CCN(C2(C)COCC2O)CC1 (single isomer, unassigned) [Ex-2.2, (3S,4S or 3R,4R)-4-(4-{2-[(1,5-dimethyl-1H-pyrazol-4-yl)amino]-6-methylquinazolin-7-yl}piperazin-1-yl)-4-methyloxolane-3-ol] | 36 nM
CC(C)Nc1ccc2cnc(Nc3cnn(C4CCN(C5(C)COC5)CC4)c3)nc2c1 [Ex-4.9, N~2~-{1-[1-(3-methyloxetan-3-yl)piperidin-4-yl]-1H-pyrazol-4-yl}-N~7~-(propan-2-yl)quinazoline-2,7-diamine] | 9.16 nM
CC1(N2CCN(c3cc4nc(Nc5cnn(CC6CCC6)c5Cl)ncc4cc3Cl)CC2)COC1 [Ex-4.54, 6-chloro-N-[5-chloro-1-(cyclobutylmethyl)-1H-pyrazol-4-yl]-7-[4-(3-methyloxetan-3-yl)piperazin-1-yl]quinazolin-2-amine] | 2.87 nM
CCn1ncc(Nc2ncc3ccc(N4CCC4C)cc3n2)c1C (single isomer, unassigned) [Ex-1.10, (S) or (R) N-(1-ethyl-5-methyl-1H-pyrazol-4-yl)-7-(2-methylazetidin-1-yl)quinazolin-2-amine] | 13.3 nM
CCn1ncc(Nc2ncc3ccc(N4C(=O)[C@@H]5CC[C@H]4C5)nc3n2)c1C (single isomer, unassigned) [Ex-15.3, (1S,4R) or (1R,4S)-2-{2-[(1-ethyl-5-methyl-1H-pyrazol-4-yl)amino]pyrido[2,3-d]pyrimidin-7-yl}-2-azabicyclo[2.2.1]heptan-3-one] | 4.43 nM
CC1(N2CCN(c3cc4nc(Nc5cnn(C6CC6)c5Cl)ncc4cc3Cl)CC2)COCC1O (single isomer, unassigned) [Ex-1.46, (3S,4S or 3R,4R)-4-(4-{6-chloro-2-[5-chloro-1-cyclopropyl-1H-pyrazol-4-yl)amino]quinazolin-7-yl}piperazin-1-yl)-4-methyloxolane-3-ol] | 0.625 nM
OCC1CCN(c2cc3nc(Nc4cnn(CC(F)F)c4Cl)ncc3cc2Cl)C1 (stereo not drawn) [Ex-1.15, [1-(6-chloro-2-{[5-chloro-1-(2,2-difluoroethyl)-1H-pyrazol-4-yl]amino}quinazolin-7-yl)pyrrolidin-3-yl]methanol] | 5.49 nM
Cc1c(Nc2cc3cc(N4CCN([C@]5(C)COC[C@@H]5O)CC4)c(Cl)cc3cn2)cnn1C1CC1 (single isomer, unassigned) [Ex-1.2, (3R,4R) or (3S,4S) 4-(4-(7-chloro-3-((1-cyclopropyl-5-methyl-1H-pyrazol-4-yl)amino)isoquinolin-6-yl)piperazin-1-yl)-4-methyltetrahydrofuran-3-ol] | 8.41 nM
CC1(N2CCN(c3cc4nc(Nc5cnn(C6(C)CC6)c5Cl)ncc4cc3Cl)CC2)COC1 [Ex-4.22, 6-chloro-N-[5-chloro-1-(1-methylcyclopropyl)-1H-pyrazol-4-yl]-7-[4-(3-methyloxetan-3-yl)piperazin-1-yl]quinazolin-2-amine] | 0.625 nM
Cc1cc2cnc(Nc3cnn(C4CC4)c3C)nc2cc1N1CCN(C2COCC2O)CC1 (single isomer, unassigned) [Ex-5.7, (3S,4S) or (3R,4R) 4-(4-{2-[(1-cyclopropyl-5-methyl-1H-pyrazol-4-yl)amino]-6-methylquinazolin-7-yl}piperazin-1-yl)oxolan-3-ol] | 0.197 nM
Cc1c(Nc2ncc3cc(Cl)c(N4CCN(C5(C)COCC5O)CC4)cc3n2)cnn1C1CC1(F)F (single isomer, unassigned) [Ex-6.42, (3S,4S) or (3R,4R) 4-[4-(6-chloro-2-{[1-(2,2-(R) or (S)difluorocyclopropyl)-5-methyl-1H-pyrazol-4-yl]amino}quinazolin-7-yl)piperazin-1-yl]-4-methyloxolan-3-ol] | 21.4 nM
CC(C)(C)Cn1cc(Nc2ncc3cc(Cl)c(N4CCN(C5(C)COC5)CC4)cc3n2)cn1 [Ex-4.64, 6-chloro-N-[1-(2,2-dimethylpropyl)-1H-pyrazol-4-yl]-7-[4-(3-methyloxetan-3-yl)piperazin-1-yl]quinazolin-2-amine] | 9.73 nM
FC1(F)CC(N2CCN(c3cc4nc(Nc5cnn(C6CC6)c5Cl)ncc4cc3Cl)CC2)C1 [Ex-4.71, 6-chloro-N-(5-chloro-1-cyclopropyl-1H-pyrazol-4-yl)-7-(4-(3,3-difluorocyclobutyl)piperazin-1-yl)quinazolin-2-amine] | 11.1 nM
CC1(O)CCN(c2cc3nc(Nc4cnn(CC(F)F)c4Cl)ncc3cc2Cl)C1 (stereo not drawn) [Ex-1.14, 1-(6-chloro-2-{[5-chloro-1-(2,2-difluoroethyl)-1H-pyrazol-4-yl]amino}quinazolin-7-yl)-3-methylpyrrolidin-3-ol] | 4.71 nM
OC1COCC1N1CCN(c2cc3nc(Nc4cnn(C56CC(F)(C5)C6)c4Cl)ncc3cc2Cl)CC1 (single isomer, unassigned) [Ex-3.58, (3R,4R) or (3S,4S) 4-(4-(6-chloro-2-((5-chloro-1-(3-fluorobicyclo[1.1.1]pentan-1-y])-1H-pyrazol-4-yl)amino)quinazolin-7-yl)piperazin-1-yl) tetrahydrofuran-3-ol] | 0.44 nM
CCn1ncc(Nc2ncc3ccc(N4C(=O)CCC4C)cc3n2)c1C (single isomer, unassigned) [Ex-7.17, (R) or (S) 1-{2-[(1-ethyl-5-methyl-1H-pyrazol-4-yl)amino]quinazolin-7-yl}-5-methylpyrrolidin-2-one] | 54.9 nM
CC1(O)C2CC1CN(c1cc3nc(Nc4cnn(C5CC5)c4Cl)ncc3cc1Cl)C2 (stereo not drawn) [Ex-1.41, 3-{6-chloro-2-[(5-chloro-1-cyclopropyl-1H-pyrazol-4-y)amino]quinazolin-7-yl}-6-methyl-3-azabicyclo[3.1.1]heptan-6-ol] | 8.93 nM
Cc1cc2cnc(Nc3cnn(C4CC4)c3C)nc2cc1N1CCN(C2(C)COCC2O)CC1 (single isomer, unassigned) [Ex-5.4, (3S,4S) or (3R,4R) 4-(4-(2-((1-cyclopropyl-5-methyl-1H-pyrazol-4-yl)amino)-6-methylquinazolin-7-yl)piperazin-1-yl)-4-methyltetrahydrofuran-3-ol] | 0.18 nM
FC(F)(F)C1(n2ncc(Nc3ncc4cc(Cl)c(N5CCN(C6COC6)CC5)cc4n3)c2Cl)CC1 [Ex.3.23, 6-chloro-N-{5-chloro-1-[1-(trifluoromethyl)cyclopropyl]-1H-pyrazol-4-yl}-7-[4-(oxetan-3-yl)piperazin-1-yl]quinazolin-2-amine] | 3.45 nM
